Measured values as given in EP2873675A1, “Peptide-based peroxidase inhibitors and methods of using same” (The Medical College of Wisconsin, Inc., priority 2013, dated 2015).
Entries after “also recorded” stand apart in the source; their conditions may differ. Positions of bridges follow the written chain, without caps; N, C: chain ends. Non-standard residues stand in square brackets, D forms with d. Residues, ends and D or L forms follow the SMILES beside them. Chains are numbered I, II in the order given.

Experiments:
[1] = test system: SS/Mcw rat hearts; experiment: Ischemia/reperfusion injury in isolated perfused hearts (Langendorff)
Text: Ischemia/Reperfusion (I/R) Injury in Isolated Hearts. Rats used in this study received humane care in compliance with the Guide for the Care and Use of Laboratory Animals, by the National Research Council. Rats were maintained on a low salt (0.4% NaCl) diet with unlimited access to water. Environmental influences were minimized by maintaining rats in identical housing conditions. Dahl S (SS/Mcw male rats at 8 weeks of age were used for this study.
Modified Krebs-Henseleit bicarbonate buffer was prepared containing the following components (in mM): 118.5 NaCl, 25.0 NaHCO3, 4.8 KCl, 1.2 MgSO4·6H2O, and 1.2 KH2PO4 (pH 7.4 when gassed with 95% O2-5% CO2) in which the calcium content was 1.8. Glucose (11.1 mM) was added to the perfusate. Before use, all perfusion fluids were filtered through cellulose acetate membranes with a pore size of 5 µm. To this perfusate, drugs (KAA, KYC) were added as needed. Animals were weighed, and heparin was administered intraperitoneally based on weight (150 IU/kg). Anesthesia was induced with pentobarbital sodium (30 mg/kg ip). Once adequate anesthesia was obtained, the abdomen was opened, and the diaphragm was separated from its chest wall attachments and the pericardium opened. The aorta was clamped and the heart excised. The heart was then immediately transferred to the Langendorff apparatus, and the aorta was cannulated and secured using silk ties. Coronary arteries were perfused at constant pressure (80 mmHg) in a retrograde fashion with Krebs buffer. The heart was immersed in a bath containing Krebs buffer at 37.2 +/- 0.1°C to maintain conditions of normothermia. Left ventricular pressure (LVP) was measured isovolumetrically with a transducer connected to a thin, saline-filled latex balloon inserted into the left ventricle through the mitral valve from an incision in the left atrium.
Drug perfusion. After steady-state levels of function were reached, hearts were perfused with HZ2 (Ac-KYC-NH2) or HZ3 (Ac-KWC-NH2) at 50mg/L for 40 min prior to 35 min global ischemia and 2 hour reperfusion. The protocol for perfusing isolated hearts with or without KWC or scramble peptide KAA is described in Fig. 5A.

[2] = target: T1, MPO (Homo sapiens, UniProt P05164); experiment: MPO-mediated LDL oxidation (conjugated diene formation, absorbance at 234 nm); type: biochemical; details: 25 µM; for MPO/H2O2/nitrite-mediated LDL oxidation: H2O2 100 µM, NaNO2 100 µM, MPO 20 nM; for MPO/H2O2-mediated LDL oxidation: in the absence of nitrite
T1 construct: purchased Lee Biosolutions (St. Louis, MO)
T1 sequence (P05164 49-745): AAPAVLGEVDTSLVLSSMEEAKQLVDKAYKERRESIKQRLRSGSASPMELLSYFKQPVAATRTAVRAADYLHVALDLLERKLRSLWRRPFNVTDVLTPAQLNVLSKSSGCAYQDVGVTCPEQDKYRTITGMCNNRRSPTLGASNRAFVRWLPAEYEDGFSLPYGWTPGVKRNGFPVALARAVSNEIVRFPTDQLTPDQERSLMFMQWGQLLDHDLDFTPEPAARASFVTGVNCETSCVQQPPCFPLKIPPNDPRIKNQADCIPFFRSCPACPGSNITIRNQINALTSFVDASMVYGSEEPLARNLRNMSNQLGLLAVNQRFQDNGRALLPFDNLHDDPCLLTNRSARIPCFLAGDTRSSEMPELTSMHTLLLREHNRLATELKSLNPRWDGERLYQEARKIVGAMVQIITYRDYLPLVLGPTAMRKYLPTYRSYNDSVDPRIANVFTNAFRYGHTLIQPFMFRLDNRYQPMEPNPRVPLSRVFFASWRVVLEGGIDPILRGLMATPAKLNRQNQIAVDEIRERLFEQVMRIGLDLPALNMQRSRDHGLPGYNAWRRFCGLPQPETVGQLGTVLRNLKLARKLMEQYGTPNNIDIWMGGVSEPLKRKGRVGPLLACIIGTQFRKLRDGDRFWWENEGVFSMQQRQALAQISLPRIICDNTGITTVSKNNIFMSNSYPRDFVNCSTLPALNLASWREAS
Method: (§1) MPO-mediated oxidation of LDL. Reaction mixtures contained LDL (0.15 mg/ml), NaNO2 (100 µM), H2O2 (300 µM), MPO (20 nM) and various concentrations of KYC in a potassium phosphate buffer (100 mM, pH 7.4) containing DTPA (100 µM). LDL oxidation was monitored at 234 nm at room temperature on a HP UV/VIS spectrometer. Absorbance traces represent the average of duplicate experiments.
(§2) MPO-mediated LDL Oxidation. Reaction mixtures contained LDL (0.15 mg/mL), NaNO2 (100 µM), H2O2 (100 µM), MPO (20 nM) and increasing concentrations of KYC in a phosphate buffer (100 mM, pH 7.4) containing DTPA (100 µM). Rates of LDL oxidation were monitored at room temperature at 234 nm, the wavelength maximum for conjugated dienes.
(§3) MPO-mediated LDL Conjugated Diene Formation: Reaction mixtures contained LDL (0.15 mg/mL), NaNO2 (100 µM), H2O2 (100 µM), MPO (20 nM) and increasing concentrations of KYC or equimolar concentrations of various compounds in a phosphate buffer (100 mM, pH 7.4) containing DTPA (100 µM). Rates of LDL conjugated diene formation were determined by following changes in absorbance at 234 nm, the wavelength maximum for conjugated dienes, on a UV-Vis spectrophotometer (Agilent Model 8453) at room temperature.

[3] = target: T1, MPO; experiment: MPO-catalyzed HOCl production (taurine/TMB assay); type: biochemical; details: 12.5 µM
Method: (§4) MPO-mediated HOCl Production. MPO (20 nM) was incubated with H2O2 (50 µM), NaCl (150 mM), taurine (5 mM) and increasing concentrations of KYC in phosphate buffer (100 mM, pH 7.4) which also contained diethylene triamine pentaacetic acid (DTPA, 100 µM) to prevent non-specific, divalent metal cation oxidation for 30 min. Reactions were halted by addition of catalase. Chlorotaurine was quantified using the 3,3-,5,5-tetramethylbenzidine (TMB) assay. Briefly, 400 µL of reaction solution was mixed with 100 µL of 2 mM TMB, 100 µM NaI containing 10% dimethylformamide (DMF) in 400 mM acetate buffer (pH 5.4). After 5 min, absorbance (650 nm) was recorded on a UV/Vis spectrophotometer (Agilent Model 8453).
(§5) MPO-catalyzed HOCl Production: MPO (20 nM) was incubated with H2O2 (50 µM), NaCl (150 mM), taurine (5 mM) and increasing concentrations of KYC in a phosphate buffer (100 mM, pH 7.4) containing diethylene triamine pentaacetic acid (DTPA, 100 µM) to prevent non-specific, divalent metal cation oxidation for 30 min. Reactions were halted by addition of catalase (2,000 units/mL). Chlorotaurine was quantified using the TMB assay (66). Briefly, 400 µL of reaction solution was mixed with 100 µL of 2 mM TMB, 100 µM NaI containing 10% dimethylformamide (DMF) in 400 mM acetate buffer (pH 5.4). After 5 min, absorbance (650 nm) was recorded on a UV/Vis spectrophotometer (Agilent Model 8453).

[4] = test system: MPO; experiment: MPO-mediated LDL oxidation (conjugated diene formation, absorbance at 234 nm); type: biochemical; details: 25 µM; H2O2 100 µM, NaNO2 100 µM, MPO 20 nM
Method: as §1, §2, §3

[5] = test system: MPO; experiment: MPO-catalyzed HOCl production (taurine/TMB assay); type: biochemical; details: for MPO-catalyzed HOCl production, dose-dependent effects: increasing concentrations
Method: as §4, §5

[6] = test system: hypertensive rats; details: large doses; cited from earlier work
[7] = Thiol reduction of KYC disulfide (HPLC); type: physicochemical
Text: To confirm that KYC oxidation by MPO yields a simple disulfide, we reduced the product using simple thiols such as glutathione (GSH) and dithiothreitol (DTT).

[8] = test system: NADPH oxidase (NOX); experiment: PMA-stimulated HL-60 cell superoxide formation (SOD-inhibitable cytochrome C reduction); type: cell-based, human; details: cytochrome C assay
Method: PMA-induced Superoxide Anion Formation. HL-60 cells were cultured in RPMI 1640 medium containing 10 % FCS (passage 20-50). HL-60 cells were harvested by centrifugation (1000 rpm, 10 min), washed 2X with phosphate buffer (10 mM, pH 7.4) with NaCl (138 mM), KCl (2.67 mM), CaCl2 (0.901 mM), MgCl2 (0.493 mM) and glucose (1mg/ml) to remove culture medium. The HL-60 cells (6 x10^6/0.5ml) were re-suspended in DPBS. After stimulation with PMA (10 µM), the HL-60 cells were incubated with cytochrome C (40 µM) with or without superoxide dismutase at 37°C for 30 min. The reaction was stopped by centrifugation. Cytochrome C reduction was measured at 550 nm on a UV-Vis spectrophotometer (Agilent, Model 8453).
PMA-stimulated HL-60 cell O2^•- Formation: HL-60 cells were harvested by centrifugation (1000 rpm, 10 min), washed twice with DPBS with glucose to remove culture medium. The HL-60 cells (1.2 x10^7/ml) were re-suspended in DPBS with glucose. After stimulation with PMA (10 µM), the HL-60 cells were incubated with cytochrome C (40 µM) with or without superoxide dismutase (500 units/mL) at 37 °C for 10 min and then the HL-60 cells were removed by centrifugation. Cytochrome C reduction in supernatants was measured at 550 nm using a UV-Vis spectrophotometer (Agilent, Model 8453).

With `CC(=O)N[C@@H](CCCCN)C(=O)N[C@@H](Cc1c[nH]c2ccccc12)C(=O)N[C@@H](CS)C(N)=O` [KWC, Ac-KWC-amide] (Ac-Lys-Trp-Cys-NH2) the “percent recovery of LVDP after I/R injury” value ([1]; perfusion 40 min prior to 35 min global ischemia and 2 hour reperfusion, untreated 37.1±4.3) was 55.3±4.1%, the “left ventricular developed pressure (LVDP) after I/R injury” value ([1]; perfusion 40 min prior to 35 min global ischemia and 2 hour reperfusion, untreated 38±3.9) was 57.3±4.8 mmHg and the “increase of coronary flow rates after perfusion into the hearts” value ([1]; prior to ischemia) was “more than 20%”. The “percent recovery of coronary flow rates after I/R” value ([1]; untreated control 49.6±3.4, p<0.05) was 65.2±4%.

For `N[C@@H](Cc1ccc(O)cc1)C(=O)O` [Tyr, tyrosine], the “MPO/H2O2/nitrite-mediated LDL oxidation” value [2] was “accelerated and enhanced LDL oxidation”, the “MPO/H2O2-mediated LDL oxidation” value [2] was “increased MPO-mediated LDL oxidation” and the “MPO-catalyzed HOCl production, comparison at equimolar concentration” value [3] was “little, if any effect”. The “MPO-catalyzed HOCl production, comparison at equimolar concentration” value ([3]; listed as Tyrosine) was “little if any effect”.

In the case of “N-acetyl Lysylphenylalanylcysteine amid [KFC]”, the “MPO/H2O2/nitrite-mediated LDL oxidation” value [4] is reported as “increased the lag phase and delayed, but did not totally inhibit LDL oxidation”, the “reduction of HOCl detected by the taurine/TMB assay” value ([5]; 25 µM) is reported as 35% and the “MPO-catalyzed HOCl production, dose-dependent effects” value [5] is reported as “weaker inhibitor of HOCl formation”.

With `N[C@@H](Cc1c[nH]c2ccccc12)C(=O)O` [Trp, tryptophan] the “MPO/H2O2/nitrite-mediated LDL oxidation” value [2] was “did not inhibit but actually enhanced LDL oxidation”, the “MPO/H2O2-mediated LDL oxidation” value [2] was “increased MPO-mediated LDL oxidation” and the “MPO-catalyzed HOCl production, comparison at equimolar concentration” value [3] was “effective inhibitor”.

In the case of `CC(=O)N[C@H](CCCCN)C(=O)N[C@H](Cc1ccc(O)cc1)C(=O)N[C@H](CS)C(N)=O` [Ac-(d)K(d)Y(d)C-amide] (Ac-[dK]-[dY]-[dC]-NH2), the “MPO-catalyzed HOCl production, comparison at equimolar concentration” value ([5]; 12.5 µM) is reported as “less effective than KYC”.

With `N[C@@H](CCC(=O)N[C@@H](CS)C(=O)NCC(=O)O)C(=O)O` [GSH, glutathione] the “MPO/H2O2/nitrite-mediated LDL oxidation” value [2] was “ineffective for inhibiting LDL oxidation” and the “MPO/H2O2-mediated LDL oxidation” value [2] was “inhibited LDL oxidation; also recorded: did not increase LDL oxidation”.

For “N-acetyl Lysyltyrosylcyeteine amide [KYS]”, the “MPO/H2O2/nitrite-mediated LDL oxidation” value [4] was “accelerated LDL oxidation” and the “MPO-catalyzed HOCl production, dose-dependent effects” value [5] was “failed to inhibit; also recorded: not an inhibitor”.

In the case of `COc1ccc2[nH]cc(CCNC(C)=O)c2c1` [melatonin], the “number of apoptotic cells in the vessel wall” value [6] is listed as “increased the number of apoptotic cells in the vessel wall”.

For `CC(=O)N[C@@H](CCCCN)C(=O)N[C@@H](Cc1ccc(O)cc1)C(=O)N[C@@H](CSSC[C@H](NC(=O)[C@H](Cc1ccc(O)cc1)NC(=O)[C@H](CCCCN)NC(C)=O)C(N)=O)C(N)=O` [KYC disulfide] (I: Ac-Lys-Tyr-Cys-NH2 / II: Ac-Lys-Tyr-Cys-NH2; disulfide I:3-II:3), the “reduction to KYC monomer by GSH” value ([7]; 10 mM GSH, 120 min) was “completely reduced”, the “time to complete reduction to KYC monomer by DTT” value ([7]; DTT 0.5 mM, room temperature) was at most 5 min and the “O2•- production in PMA-stimulated HL-60 cells” value [8] was “neither KYC nor KYC disulfide have any significant effect; also recorded: Neither KYC nor KYC disulfide had any significant effect”.
